Experimental data: the supplement of paper PMC11061612

How the values were obtained:
Experiment in all cases: Bliss excess, mean over the matrix (fraction); higher = more synergy
[1] = test system: CL-11 (Colorectal Carcinoma)
Summary of the method: (§1)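 Bliss excess equals the observed combination effect minus the expected value EA + EB − EA·EB, where EA and EB are the effects of each agent alone. Combination Emax is the second-highest inhibition within the matrix. Inhibition was scaled from CellTiter-Glo 2.0 luminescence, with 0 set by vehicle wells and 1 by blank wells, after 72 hours of two-drug dosing of cells plated in 1536-well plates.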

[2] = test system: CPC-N (Small Cell Lung Carcinoma)
Summary of the method: as §1

[3] = test system: ES6 (Ewing's Sarcoma)
Summary of the method: as §1

[4] = test system: LS-1034 (Colorectal Carcinoma)
Summary of the method: as §1

[5] = test system: MOLP-8 (Plasma Cell Myeloma)
Summary of the method: as §1

[6] = test system: NCI-H3118 (Head and Neck Carcinoma)
Summary of the method: as §1

[7] = test system: NCI-H596 (Other Solid Carcinomas)
Summary of the method: as §1

[8] = test system: OAW-28 (Ovarian Carcinoma)
Summary of the method: as §1

[9] = test system: OVCAR-3 (Ovarian Carcinoma)
Summary of the method: as §1

[10] = test system: P32-ISH (Burkitt's Lymphoma)
Summary of the method: as §1

[11] = test system: PA-TU-8988T (Pancreatic Carcinoma)
Summary of the method: as §1

[12] = test system: PL4 (Pancreatic Carcinoma)
Summary of the method: as §1

[13] = test system: RCC-JW (Kidney Carcinoma)
Summary of the method: as §1

[14] = test system: SK-CO-1 (Colorectal Carcinoma)
Summary of the method: as §1

[15] = test system: SKG-IIIa (Cervical Carcinoma)
Summary of the method: as §1

[16] = test system: SNU-407 (Colorectal Carcinoma)
Summary of the method: as §1

[17] = test system: SUP-M2 (T-Cell Non-Hodgkin's Lymphoma)
Summary of the method: as §1

[18] = test system: T47D (Breast Carcinoma)
Summary of the method: as §1

[19] = test system: UACC-257 (Melanoma)
Summary of the method: as §1

[20] = test system: WM35 (Melanoma)
Summary of the method: as §1

| SMILES | Bliss excess [1] | Bliss excess [2] | Bliss excess [3] | Bliss excess [4] | Bliss excess [5] | Bliss excess [6] | Bliss excess [7] | Bliss excess [8] | Bliss excess [9] | Bliss excess [10] | Bliss excess [11] | Bliss excess [12] | Bliss excess [13] | Bliss excess [14] | Bliss excess [15] | Bliss excess [16] | Bliss excess [17] | Bliss excess [18] | Bliss excess [19] | Bliss excess [20] |
| --- | --- | --- | --- | --- | --- | --- | --- | --- | --- | --- | --- | --- | --- | --- | --- | --- | --- | --- | --- | --- |
| Cc1cc2ncnn2cc1Nc1ncc2c(n1)n(C1CCOCC1)c(=O)n2C [AZD7648] + C[C@@H]1COCCN1C2=NC(=NC(=C2)C3(CC3)[S@](=N)(=O)C)C4=C5C=CNC5=NC=C4 [AZD6738] (first compound max 10 µM, 7x7, partner max 10 µM) | -0.028 | -0.0013 | -0.0082 | 0.0327 | 0.0234 | 0.0555 | -0.0318 | 0.033 | 0.0009 | -0.0029 | 0.003 | -0.0396 | 0.0176 | 0.0003 | 0.0412 | -0.0207 | 0.0562 | 0.0444 | 0.0075 | 0.0113 |
| Cc1cc2ncnn2cc1Nc1ncc2c(n1)n(C1CCOCC1)c(=O)n2C [AZD7648] + O=C(c1cc(Cc2n[nH]c(=O)c3ccccc23)ccc1F)N1CCN(C(=O)C2CC2)CC1 [Olaparib] (first compound max 10 µM, 7x7, partner max 10 µM) | -0.0464 | 0.0169 | -0.0341 | -0.0353 | -0.0267 | -0.0223 | -0.0384 | -0.0127 | -0.0257 | -0.0413 | -0.0047 | -0.0364 | -0.0795 | -0.0466 | -0.0678 | -0.0796 | 0.0721 | -0.042 | -0.0422 | -0.0239 |
| NC1(C(=O)N[C@@H](CCO)c2ccc(Cl)cc2)CCN(c2ncnc3[nH]ccc23)CC1 [Capivasertib] + CC(=O)c1c(C)c2cnc(Nc3ccc(N4CCNCC4)cn3)nc2n(C2CCCC2)c1=O [Palbociclib] (first compound max 10 µM, 7x7, partner max 10 µM) | -0.0222 | -0.0448 | -0.0055 | -0.0157 | 0.0115 | 0.0463 | -0.0856 | -0.0162 | -0.0396 | 0.0066 | -0.0168 | -0.0323 | 0.0347 | -0.0319 | -0.0489 | -0.0267 | 0.0198 | -0.0115 | -0.0046 | 0.01 |
| NC1(C(=O)N[C@@H](CCO)c2ccc(Cl)cc2)CCN(c2ncnc3[nH]ccc23)CC1 [Capivasertib] + CC(C)n1c(=O)n(C)c2cnc3cc(F)c(-c4ccc(OCCCN5CCCCC5)nc4)cc3c21 [AZD1390] (first compound max 10 µM, 7x7, partner max 0.3 µM) | -0.0287 | -0.0435 | -0.0981 | -0.0447 | -0.0032 | -0.0572 | -0.143 | -0.0674 | -0.0438 | 0.0131 | -0.0434 | -0.0225 | -0.0366 | -0.0173 | -0.104 | -0.0261 | 0.0202 | -0.0476 | -0.0358 | -0.0773 |
| NC1(C(=O)N[C@@H](CCO)c2ccc(Cl)cc2)CCN(c2ncnc3[nH]ccc23)CC1 [Capivasertib] + CCN(CCO)CCCOc1ccc2c(Nc3cc(CC(=O)Nc4cccc(F)c4)[nH]n3)ncnc2c1 [AZD2811] (first compound max 10 µM, 7x7, partner max 1 µM) | -0.0034 | -0.0523 | -0.0055 | -0.0634 | 0.0345 | -0.0242 | 0.017 | 0.0262 | 0.0224 | -0.021 | 0.103 | 0.0317 | -0.0014 | -0.0431 | -0.035 | -0.0833 | -0.0005 | 0.071 | 0.0028 | -0.0471 |
| NC1(C(=O)N[C@@H](CCO)c2ccc(Cl)cc2)CCN(c2ncnc3[nH]ccc23)CC1 [Capivasertib] + COc1nnc2ccc(N3CCC(c4ccc(OCCN5CCN(C)C(=O)[C@H]5C)cc4)CC3)nn12 [AZD5153] (first compound max 10 µM, 7x7, partner max 1 µM) | -0.0206 | -0.0348 | 0.0103 | 0.0201 | 0.0092 | -0.0144 | -0.0136 | 0.0387 | 0.0189 | 0.119 | -0.0603 | -0.0138 | 0.0516 | -0.0209 | 0.0067 | -0.0269 | -0.0322 | 0.0139 | -0.0072 | -0.0195 |
| NC1(C(=O)N[C@@H](CCO)c2ccc(Cl)cc2)CCN(c2ncnc3[nH]ccc23)CC1 [Capivasertib] + C[C@@H]1COCCN1C2=NC(=NC(=C2)C3(CC3)[S@](=N)(=O)C)C4=C5C=CNC5=NC=C4 [AZD6738] (first compound max 10 µM, 7x7, partner max 10 µM) | -0.0376 | -0.0117 | -0.0479 | -0.0782 | 0.0357 | -0.0807 | -0.0105 | 0.0005 | -0.0169 | 0.0277 | -0.0372 | -0.0328 | -0.0713 | -0.0786 | -0.0602 | -0.101 | 0.0523 | -0.0095 | 0.0164 | -0.02 |
| NC1(C(=O)N[C@@H](CCO)c2ccc(Cl)cc2)CCN(c2ncnc3[nH]ccc23)CC1 [Capivasertib] + Cn1cnc2c(F)c(Nc3ccc(Br)cc3Cl)c(C(=O)NOCCO)cc21 [Selumetinib] (first compound max 10 µM, 7x7, partner max 10 µM) | -0.0202 | -0.0381 | -0.0397 | -0.0123 | 0.121 | 0.091 | 0.0182 | -0.0034 | -0.0223 | 0.0288 | 0.128 | -0.0314 | 0.0296 | 0.0107 | -0.0066 | 0.026 | 0.0835 | -0.0108 | -0.0402 | 0.0104 |
| Cc1nc(Nc2ncc(C(=O)Nc3c(C)cccc3Cl)s2)cc(N2CCN(CCO)CC2)n1 [Dasatinib] + CC(=O)Nc1cccc(-n2c(=O)n(C3CC3)c(=O)c3c(Nc4ccc(I)cc4F)n(C)c(=O)c(C)c32)c1 [Trametinib] (first compound max 2 µM, 7x7, partner max 1 µM) | 0.0766 | -0.0405 | -0.0495 | -0.0302 | 0.0159 | -0.0604 | -0.0018 | 0.0599 | -0.001 | 0.0545 | 0.136 | -0.0056 | 0.0062 | 0.0602 | -0.026 | 0.0332 | -0.0216 | -0.0855 | -0.0926 | -0.0182 |
| COc1cccc2c1C(=O)c1c(O)c3c(c(O)c1C2=O)C[C@@](O)(C(=O)CO)C[C@@H]3O[C@H]1C[C@H](N)[C@H](O)[C@H](C)O1 [Doxorubicin] + Cc1cc2ncnn2cc1Nc1ncc2c(n1)n(C1CCOCC1)c(=O)n2C [AZD7648] (first compound max 1 µM, 7x7, partner max 10 µM) | 0.0863 | 0.105 | 0.0672 | 0.0055 | 0.0396 | 0.0731 | -0.006 | 0.0209 | 0.0489 | 0.14 | 0.0582 | 0.0391 | 0.0352 | -0.0163 | 0.0086 | -0.0143 | 0.112 | -0.0004 | -0.0059 | 0.0285 |
| COc1cc2ncnc(Nc3ccc(F)c(Cl)c3)c2cc1OCCCN1CCOCC1 [Gefitinib] + CC(C)n1c(=O)n(C)c2cnc3cc(F)c(-c4ccc(OCCCN5CCCCC5)nc4)cc3c21 [AZD1390] (first compound max 10 µM, 7x7, partner max 0.3 µM) | -0.0474 | -0.0369 | -0.0574 | -0.0368 | -0.0584 | -0.0011 | -0.0474 | -0.0392 | -0.056 | -0.0116 | -0.0342 | -0.055 | -0.069 | -0.0056 | -0.0991 | -0.0783 | -0.0522 | -0.0438 | -0.055 | -0.0641 |
| CS(=O)(=O)CCNCc1ccc(-c2ccc3ncnc(Nc4ccc(OCc5cccc(F)c5)c(Cl)c4)c3c2)o1 [Lapatinib] + C[C@@H](Oc1cc(-c2cnn(C3CCNCC3)c2)cnc1N)c1c(Cl)ccc(F)c1Cl [Crizotinib] (first compound max 10 µM, 7x7, partner max 10 µM) | -0.0477 | -0.0741 | -0.0437 | -0.0407 | 0.012 | 0.0337 | -0.0065 | -0.0177 | -0.0161 | 0.0037 | -0.0244 | 0.0434 | -0.0455 | -0.0721 | -0.0438 | -0.0774 | 0.0299 | -0.0223 | -0.0442 | -0.0446 |
| CC(=O)c1c(C)c2cnc(Nc3ccc(N4CCNCC4)cn3)nc2n(C2CCCC2)c1=O [Palbociclib] + CC1(C)CCC(CN2CCN(c3ccc(C(=O)NS(=O)(=O)c4ccc(NCC5CCOCC5)c([N+](=O)[O-])c4)c(Oc4cnc5[nH]ccc5c4)c3)CC2)=C(c2ccc(Cl)cc2)C1 [Venetoclax] (first compound max 10 µM, 7x7, partner max 1 µM) | -0.0286 | -0.0394 | -0.0387 | -0.12 | 0.0278 | -0.0142 | -0.0501 | -0.0112 | -0.0356 | -0.0132 | -0.0333 | -0.0521 | -0.0539 | -0.122 | -0.0667 | -0.01 | -0.0058 | 0.0466 | -0.0479 | -0.0448 |
